Test results as given in patent publication US20240173419A1, “CDK2 DEGRADERS AND USES THEREOF” (Kymera Therapeutics, Inc., priority 2022, published 2024).

Biological target: T1, CDK2 (Homo sapiens, UniProt P24941)
T1 construct: endogenous in cells; host or cells: MKN1 cells
Assay: CDK2 degradation in MKN1 cells (AlphaLISA)
Assay type: cell-based
Set-up: key to CDK2 degradation 14 h: Mean external-Abs DC50 (nM): A (<100 nM); B (≥100-500 nM); C (>500-1000 nM); D (>1000 nM); E (not achieved)
Conditions: 14 h incubation; for DC50: read-out: CDK2 degradation 14 h: Mean external-Abs DC50
Description: Degradation of CDK2 in MKN1 cells was measured using AlphaLISA technology (PerkinElmer ALSU-TCDK2-A10K). MKN1 cells were maintained in RPMI1640 medium containing 10% FBS+1× penn/strep. Cells were seeded in 96-well plates (Corning 3599) at a density of 2e4 cells per well in 80 μL of fresh complete growth medium. Cells were incubated overnight at 37° C., 5% CO2. Compounds were then added to the cell assay plates with a final top concentration of 10 μM in a 1:5 dilution series with a total of 11 doses (0.001 nM-10 μM). The final volume per well was 160 μL and the final DMSO concentration was 0.1%. Additionally, wells containing no cells and only complete growth medium were also maintained on the cell assay plates (‘no cell’ wells) and processed along with experimental wells. After 14 hour-incubation at 37° C., 5% CO2, the medium was removed and the cells were washed once with 100 μL of 1×PBS. Following removal of PBS, 40 μL of 1× Lysis Buffer containing 1× protease and phosphatase inhibitors (Roche 4693116001; Roche 4906837001) were added to each well. The cell assay plate was agitated on a plate shaker at 350 rpm for 10 minutes at room temperature. 10 μL of each cell lysate were transferred to a 384-well plate (PerkinElmer 6007290). 10 μL of control lysates (from PerkinElmer ALSU-TCDK2-A10K kit) were added to separate wells to generate a standard curve. Activation Buffer was prepared by diluting 25-fold in combined Reaction Buffer 1 and Reaction Buffer 2. Acceptor Beads were diluted 50-fold in combined Reaction Buffers. 5 μL of Acceptor Mix were added to each well. The plate was sealed with Topseal-Aadhesive film, covered with foil, and incubated in the dark for 1 hour at room temperature. Under subdued light, the Donor Beads were diluted 50-fold in Dilution Buffer. 5 μL of Donor Mix were added to each well under subdued light. The plate was sealed with Topseal-A adhesive film, covered with foil, and incubated in the dark for 1 hour at room temperature. Under subdued light, the plates were analyzed on an EnVision Microplate Reader (PerkinElmer Model 2009-0030). The average signal from ‘no cell’ wells was subtracted from the signal in experimental wells prior to calculating Alpha signal for test compounds and negative control (0.100 DMSO). The data were analyzed using Xlfit (v5.3. 1.3) and the dose-dependent CDK2 degradation data were fit using a four-parameter logistic model to calculate DC50.

SMILES	CDK2 degradation 14 h: Average Dmax %	DC50 [nM]	CDK2 degradation 14 h: Mean external-Abs DC50 (nM)
Cc1cc(S(=O)(=O)NC2CC(N3CCN(CC4CCN(c5ccc(Cl)c(N6CCC(=O)NC6=O)c5)CC4)CC3)C2)ccc1Nc1ncc(C(F)(F)F)c(N2CCCC(C)(O)C2)n1 (stereo not shown) [I-722]	A (A (>75% o))	< 100	–
Cc1cc(S(=O)(=O)N2CCC(N(C)CC3CCN(c4cccc5c4n(C)c(=O)n5C4CCC(=O)NC4=O)CC3)C(F)(F)C2)ccc1Nc1ncc2cc(Cl)c(=O)n(C3CCCC34CC4)c2n1 (stereo not shown) [I-355]	D (D (<25%))	> 1000	–
Cc1cc(S(=O)(=O)C2CC3(CCN(CC4CCN(c5ccc6c(c5F)n(C)c(=O)n6C5CCC(=O)NC5=O)CC4)CC3)C2)ccc1Nc1nc(N2CCCC(C)(O)C2)c2c(ccn2C)n1 (stereo not shown) [I-835]	D (D (<25%))	> 1000	–
CN(CC1CCC(NS(=O)(=O)c2ccc(Nc3ncc(C(F)(F)F)c(N4CCCC(C)(O)C4)n3)c(C(F)F)c2)CC1)C1CN(c2ccc(C3CCC(=O)NC3=O)c(F)c2)C1 (stereo not shown) [I-1045]	B (B (>50% -75%))	100 to 500	–
Cc1cc(S(=O)(=O)NC2CCC(CN3CCN(c4cccc(C5CCC(=O)NC5=O)c4)CC3)CC2)ccc1Nc1ncc2c(n1)N(C1CCCC(O)C1)C(=O)C21CC1 (stereo not shown) [I-938]	C (C (>25% -50%))	> 1000	–
COc1cc(NC2CCC(=O)NC2=O)ccc1N1CCC(CN2CCC3(CC2)CC(S(=O)(=O)c2ccc(Nc4ncc5cc(Cl)c(=O)n(C6CCCC6)c5n4)c(C)c2)C3)CC1 (stereo not shown) [I-77]	A (A (>75% o))	< 100	–
Cc1cc(S(=O)(=O)C2CC3(CCN(CC4CCN(c5ccc6c(c5F)n(C)c(=O)n6C5CCC(=O)NC5=O)CC4)CC3)C2)ccc1Nc1ncc2cc(Cl)c(=O)n(C(C)C3CC3)c2n1 (stereo not shown) [I-285]	A (A (>75% o))	< 100	–
Cc1cc(S(=O)(=O)N2CCC(CN(C)C3CCN(c4cccc5c4n(C)c(=O)n5C4CCC(=O)NC4=O)CC3)CC2)ccc1Nc1ncc2cc(Cl)c(=O)n(C3CCCC34CC4)c2n1 (stereo not shown) [I-436]	A (A (>75% o))	< 100	–
Cc1cc(S(=O)(=O)NC2CC(N3CCN(CC4CCN(c5ccc6c(c5F)n(C)c(=O)n6C5CCC(=O)NC5=O)CC4)CC3)C2)ccc1Nc1ncc(C(F)(F)F)c(N2CCCC(C)(O)C2)n1 (stereo not shown) [I-831]	A (A (>75% o))	< 100	–
Cc1cc(S(=O)(=O)C2CCN(C(=O)CN3CCN(c4cccc5c4n(C)c(=O)n5C4CCC(=O)NC4=O)CC3)CC2)ccc1Nc1ncc2cc(Cl)c(=O)n(C3CCCC3)c2n1 (stereo not shown) [I-48]	B (B (>50% -75%))	< 100	–
Cc1cc(S(=O)(=O)N2CCC(CN(CC(F)(F)F)C3CCN(c4cccc5c4n(C)c(=O)n5C4CCC(=O)NC4=O)CC3)CC2)ccc1Nc1ncc2cc(Cl)c(=O)n(C3CCCC34CC4)c2n1 (stereo not shown) [I-354]	D (D (<25%))	> 1000	–
Cc1cc(S(=O)(=O)NC2CCN(CC3CCN(c4ccc(C5CCC(=O)NC5=O)cc4F)CC3)CC2F)ccc1Nc1ncc(C(F)(F)F)c(N2CCCC(C)(O)C2)n1 (stereo not shown) [I-1141]	A (A (>75% o))	< 100	–
Cc1cc(S(=O)(=O)N2CCC(CN(C)C3CCN(c4cccc5c4n(C)c(=O)n5C4CCC(=O)NC4=O)CC3)CC2)ccc1Nc1ncc2cc(Cl)c(=O)n(C3CCCC3)c2n1 (stereo not shown) [I-442]	A (A (>75% o))	< 100	–
Cc1cc(S(=O)(=O)NCCCN2CCN(CC3CCN(c4ccc5c(c4)n(C)c(=O)n5C4CCC(=O)NC4=O)CC3)CC2)ccc1Nc1ncc2cc(Cl)c(=O)n(C3CCCC3)c2n1 (stereo not shown) [I-431]	A (A (>75% o))	< 100	–
Cc1cc(S(=O)(=O)C2CC3(CCN(CC4(F)CCN(c5cccc6c5n(C)c(=O)n6C5CCC(=O)NC5=O)CC4)CC3)C2)ccc1Nc1ncc2cc(Cl)c(=O)n(C3CCCC3)c2n1 (stereo not shown) [I-45]	A (A (>75% o))	100 to 500	–
Cc1cc(S(=O)(=O)N2CCC3(CCN(Cc4cccc5c4n(C)c(=O)n5C4CCC(=O)NC4=O)CC3)CC2)ccc1Nc1ncc2ccc(=O)n(C3CCCC3)c2n1 (stereo not shown) [I-458]	B (B (>50% -75%))	100 to 500	–

SMILES	CDK2 degradation 14 h: Average Dmax %	DC50 [nM]	CDK2 degradation 14 h: Mean external-Abs DC50 (nM)
Cc1cc(S(=O)(=O)N2CCC(C(F)(F)CN3CCN(c4cccc5c4n(C)c(=O)n5C4CCC(=O)NC4=O)CC3)CC2)ccc1Nc1ncc2cc(Cl)c(=O)n(C3CCCC3)c2n1 (stereo not shown) [I-163]	B (B (>50% -75%))	> 1000	–
CC1(O)CCCN(c2nc(Nc3ccc(S(=O)(=O)NC4CCN(CC5CCN(c6ccc(C7CCC(=O)NC7=O)c(F)c6)CC5)CC45CC5)cc3F)ncc2C(F)(F)F)C1 (stereo not shown) [I-1056]	A (A (>75% o))	< 100	–
CC1(O)CCCN(c2nc(Nc3ccc(S(=O)(=O)NC4CC(CCN5CCN(c6ccc(C7CCC(=O)NC7=O)c(F)c6)CC5)C4)cc3C(F)F)ncc2C(F)(F)F)C1 (stereo not shown) [I-1073]	B (B (>50% -75%))	< 100	–
Cc1cc(S(=O)(=O)N2CCC(CN(C)C3CCN(c4cccc5c4n(C)c(=O)n5C4CCC(=O)NC4=O)CC3)CC2)ccc1Nc1ncc2ccc(=O)n(C3CCCC3)c2n1 (stereo not shown) [I-450]	A (A (>75% o))	< 100	–
Cc1cc(S(=O)(=O)NC(C)COC2CCC(CN3CCN(c4ccc5c(c4F)n(C)c(=O)n5C4CCC(=O)NC4=O)CC3)CC2)ccc1Nc1ncc(C(F)(F)F)c(N2CCC(C(C)(C)O)C2)n1 (stereo not shown) [I-857]	A (A (>75% o))	< 100	–
Cc1cc(S(=O)(=O)NC(C)COC2CCC(CN3CCN(c4cccc5c4n(C)c(=O)n5C4CCC(=O)NC4=O)CC3)CC2)ccc1Nc1ncc(C(F)(F)F)c(N2CCCC(C)(O)C2)n1 (stereo not shown) [I-851]	A (A (>75% o))	< 100	–
Cc1cc(S(=O)(=O)N2CCC(CN(C)C3CCN(c4cccc5c4n(C)c(=O)n5C4CCC(=O)NC4=O)CC3)CC2)ccc1Nc1ncc2cc(F)c(=O)n(C3CCCC3)c2n1 (stereo not shown) [I-342]	A (A (>75% o))	< 100	–
CC1CN(CC2CCN(c3ccc(C4CCC(=O)NC4=O)c(F)c3)CC2)CCC1NS(=O)(=O)c1ccc(Nc2ncc(C(F)(F)F)c(N3CCCC(C)(O)C3)n2)c(F)c1 (stereo not shown) [I-1063]	A (A (>75% o))	< 100	–
Cc1cc(S(=O)(=O)NC2CC3(CCN(CC4CCN(c5cccc6c5n(C)c(=O)n6C5CCC(=O)NC5=O)CC4)CC3)C2)ccc1Nc1ncc2cc(Cl)c(=O)n(C3CCCC3)c2n1 (stereo not shown) [I-347]	A (A (>75% o))	< 100	–
CC1CN(CC2CCN(c3ccc(C4CCC(=O)NC4=O)c(F)c3)CC2)CCC1NS(=O)(=O)c1ccc(Nc2ncc(C(F)(F)F)c(N3CCCC(C)(O)C3)n2)c(F)c1 (stereo not shown) [I-1062]	A (A (>75% o))	< 100	–
Cc1cc(S(=O)(=O)N2CC3(CC(OCCN4CCC(c5ccc6c(c5)n(C)c(=O)n6C5CCC(=O)NC5=O)CC4)C3)C2)ccc1Nc1ncc2cc(Cl)c(=O)n(C3CCCC3)c2n1 (stereo not shown) [I-418]	C (C (>25% -50%))	> 1000	–
Cc1cc(S(=O)(=O)N2CCC(N(C)CC3(F)CCN(c4cccc5c4n(C)c(=O)n5C4CCC(=O)NC4=O)CC3)CC2)ccc1Nc1ncc2cc(Cl)c(=O)n(C3CCCC34CC4)c2n1 (stereo not shown) [I-357]	B (B (>50% -75%))	–	E
Cc1cc(S(=O)(=O)C2CC3(CCN(CC4CCN(c5ccc6c(c5F)n(C)c(=O)n6C5CCC(=O)NC5=O)CC4)CC3)C2)ccc1Nc1ncc(C(F)(F)F)c(N2CCC(C(C)(C)O)C2)n1 (stereo not shown) [I-505]	A (A (>75% o))	< 100	–
Cc1cc(S(=O)(=O)N2CCC(CN(CC(F)F)C3CCN(c4cccc5c4n(C)c(=O)n5C4CCC(=O)NC4=O)CC3)CC2)ccc1Nc1ncc2cc(Cl)c(=O)n(C3CCCC34CC4)c2n1 (stereo not shown) [I-356]	D (D (<25%))	> 1000	–
Cc1cc(S(=O)(=O)N2CCN(CCCCOCCCc3ccc4c(c3)n(C)c(=O)n4C3CCC(=O)NC3=O)CC2)ccc1Nc1ncc2ccc(=O)n(C3CCCC3)c2n1 (stereo not shown) [I-459]	B (B (>50% -75%))	100 to 500	–
Cc1cc(S(=O)(=O)C2CC3(CCN(CC4CCN(c5ccc(N6CCC(=O)NC6=O)cc5)CC4)CC3)C2)ccc1Nc1ncc2cc(Cl)c(=O)n(C3CCCC3)c2n1 [I-79]	B (B (>50% -75%))	100 to 500	–
